The values that follow come from ChEMBL document CHEMBL4418500, “Methods of preventing or treating atherosclerosis with inhibitors of specific isoenzymes of human neuraminidase” (2018).

Converted amounts (≈) assume the structure as drawn. The source made the active and inactive calls. The rule behind the calls is not given here. Where only a bound is given, the exact number is not on record here.

The test system of data set [1] is Mus musculus. Kind of data set: Reduction in size of fatty streaks in aortic root of normal diet fed 12 week old ApoE KO mouse at 1 mg/kg, ip treated for 4 weeks (once every 2 days for first 2 weeks and then every day for third and the fourth weeks) by Oil Red O staining based assay relative to control. Set-up: scale not given: the % may be the effect or the level left. The class given is functional.

A short description of data set [2]: Solubility in water. The class given is physicochemical.
Data set [3] is described as follows: Toxicity in normal diet fed 12 week old ApoE KO mouse assessed as effect on body weight at 1 mg/kg, ip treated for 4 weeks (once every 2 days for first 2 weeks and then every day for third and the fourth weeks). The class given is organism-based. The note with it: in vivo.
Data set [4] is described as follows: Toxicity in normal diet fed 12 week old ApoE KO mouse assessed as effect on behavior at 1 mg/kg, ip treated for 4 weeks (once every 2 days for first 2 weeks and then every day for third and the fourth weeks). The class given is organism-based. The note with it: in vivo.
Data set [5] can be described thus: Toxicity in normal diet fed 12 week old ApoE KO mouse assessed as induction of bleeding at 1 mg/kg, ip treated for 4 weeks (once every 2 days for first 2 weeks and then every day for third and the fourth weeks). The class given is organism-based. The note with it: in vivo.
Data set [6] can be described thus: Toxicity in normal diet fed 12 week old ApoE KO mouse assessed as induction of leukocyte infiltration at 1 mg/kg, ip treated for 4 weeks (once every 2 days for first 2 weeks and then every day for third and the fourth weeks). The class given is organism-based. The note with it: in vivo.
Data set [7] in a line: Toxicity in normal diet fed 12 week old ApoE KO mouse assessed as induction of cytoplasmic vacuolization at 1 mg/kg, ip treated for 4 weeks (once every 2 days for first 2 weeks and then every day for third and the fourth weeks). The class given is organism-based. The note with it: in vivo.
The species entered for data set [8] is Mus musculus. The data set is described as follows: Effect on lipid composition in ApoE KO mouse assessed as effect on total cholesterol level. The class given is functional, organism-based.
For data set [9], the species on record is Mus musculus. Kind of data set: Effect on lipid composition in ApoE KO mouse assessed as effect on HDL-cholesterol level. The class given is functional, organism-based.
For data set [10], the species on record is Mus musculus. The data set is described as follows: Effect on lipid composition in ApoE KO mouse assessed as effect on triglycerides level. The class given is functional, organism-based.
The species entered for data set [11] is Mus musculus. Kind of data set: Effect on lipid composition in ApoE KO mouse assessed as increase in LDL cholesterol relative to control. The class given is functional.
Data set [12] has as its system Mus musculus. The data set is described as follows: Inhibition of neuraminidase-1 activity in kidney of wild type C57BI6 mouse at 30 mg/kg, ip dosed for 2 consecutive days and measured 17 hrs post last dose by X-Neu5Ac substrate based histochemical assay relative to control. The class given is functional.
Data set [13] concerns Mus musculus. Kind of data set: Reduction in size of fatty streaks in aortic root of normal diet fed 16 week old ApoE KO mouse at 30 mg/kg, ip treated for 2 weeks (once every 2 days for first week and then every day for second week) by Oil Red O staining based assay relative to control. The class given is functional. Set-up: scale not given: the % may be the effect or the level left.

For data set [14], the system named is Mus musculus. Kind of data set: Reduction in size of fatty streaks in aortic root of normal diet fed 12 week old ApoE KO mouse at 30 mg/kg, ip treated for 4 weeks (once every 2 days for first 2 weeks and then every day for third and the fourth weeks) by Oil Red O staining based assay relative to control. The class given is functional. Set-up: scale not given: the % may be the effect or the level left.

The subject of data set [15] is Mus musculus. Kind of data set: Inhibition of neuraminidase-1 activity in normal diet fed ApoE KO mouse at 30 mg/kg, ip treated for 2 weeks (once every 2 days for first week and then every day for second week) by X-Neu5Ac substrate based histochemical assay relative to control. The class given is functional.
Data set [16] is described as follows: Toxicity in normal diet fed 16 week old ApoE KO mouse assessed as effect on body weight at 30 mg/kg, ip treated for 2 weeks (once every 2 days for first week and then every day for second week) by Oil Red O staining based assay relative to control. The class given is organism-based. The note with it: in vivo.
Data set [17] can be described thus: Toxicity in normal diet fed 16 week old ApoE KO mouse assessed as effect on behavior at 30 mg/kg, ip treated for 2 weeks (once every 2 days for first week and then every day for second week) by Oil Red O staining based assay relative to control. The class given is organism-based. The note with it: in vivo.
A short description of data set [18]: Toxicity in normal diet fed 16 week old ApoE KO mouse assessed as induction of bleeding at 30 mg/kg, ip treated for 2 weeks (once every 2 days for first week and then every day for second week) by Oil Red O staining based assay relative to control. The class given is organism-based. The note with it: in vivo.
Data set [19] in a line: Toxicity in normal diet fed 16 week old ApoE KO mouse assessed as induction of leukocyte infiltration at 30 mg/kg, ip treated for 2 weeks (once every 2 days for first week and then every day for second week) by Oil Red O staining based assay relative to control. The class given is organism-based. The note with it: in vivo.
The nature of data set [20]: Toxicity in normal diet fed 16 week old ApoE KO mouse assessed as induction of cytoplasmic vacuolation at 30 mg/kg, ip treated for 2 weeks (once every 2 days for first week and then every day for second week) by Oil Red O staining based assay relative to control. The class given is organism-based. The note with it: in vivo.
Data set [21] is described as follows: Toxicity in normal diet fed 12 week old ApoE KO mouse assessed as effect on body weight at 30 mg/kg, ip treated for 4 weeks (once every 2 days for first 2 weeks and then every day for third and the fourth weeks). The class given is organism-based. The note with it: in vivo.
Data set [22] is described as follows: Toxicity in normal diet fed 12 week old ApoE KO mouse assessed as effect on behavior at 30 mg/kg, ip treated for 4 weeks (once every 2 days for first 2 weeks and then every day for third and the fourth weeks). The class given is organism-based. The note with it: in vivo.
Data set [23] in a line: Toxicity in normal diet fed 12 week old ApoE KO mouse assessed as induction of bleeding at 30 mg/kg, ip treated for 4 weeks (once every 2 days for first 2 weeks and then every day for third and the fourth weeks). The class given is organism-based. The note with it: in vivo.
Data set [24] in a line: Toxicity in normal diet fed 12 week old ApoE KO mouse assessed as induction of leukocyte infiltration at 30 mg/kg, ip treated for 4 weeks (once every 2 days for first 2 weeks and then every day for third and the fourth weeks). The class given is organism-based. The note with it: in vivo.
Data set [25] is described as follows: Toxicity in normal diet fed 12 week old ApoE KO mouse assessed as induction of cytoplasmic vacuolization at 30 mg/kg, ip treated for 4 weeks (once every 2 days for first 2 weeks and then every day for third and the fourth weeks). The class given is organism-based. The note with it: in vivo.
For data set [26], the system named is Mus musculus. The data set is described as follows: Inhibition of neuraminidase-3 activity in spleen of wild type C57BI6 mouse at 30 mg/kg, ip dosed for 2 consecutive days and measured 24 hrs post last dose by X-Neu5Ac substrate based histochemical assay relative to control. The class given is functional.
The subject of data set [27] is Mus musculus. The data set is described as follows: Inhibition of neuraminidase-4 activity in spleen of wild type C57BI6 mouse at 30 mg/kg, ip dosed for 2 consecutive days and measured 17 hrs post last dose by X-Neu5Ac substrate based histochemical assay relative to control. The class given is functional.
Data set [28] addresses T1, Sialidase-3 (Homo sapiens) (UniProt Q9UQ49).
T1 sequence (whole entry): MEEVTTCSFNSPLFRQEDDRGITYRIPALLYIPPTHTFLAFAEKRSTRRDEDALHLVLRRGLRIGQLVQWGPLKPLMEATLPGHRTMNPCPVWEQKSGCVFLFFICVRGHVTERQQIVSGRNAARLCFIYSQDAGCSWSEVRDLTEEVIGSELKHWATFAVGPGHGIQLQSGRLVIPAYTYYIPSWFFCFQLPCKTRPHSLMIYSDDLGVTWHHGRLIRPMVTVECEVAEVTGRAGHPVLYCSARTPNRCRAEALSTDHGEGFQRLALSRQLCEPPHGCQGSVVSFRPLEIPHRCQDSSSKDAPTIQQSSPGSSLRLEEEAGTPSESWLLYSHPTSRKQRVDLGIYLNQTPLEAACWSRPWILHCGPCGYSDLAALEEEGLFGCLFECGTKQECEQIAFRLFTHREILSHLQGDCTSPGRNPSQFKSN
The note with it: 1 mM.

Take `CCCCC(=O)N[C@H]1[C@H]([C@H](O)[C@H](O)Cc2ccc(-c3ccccc3)cc2)OC(C(=O)OC)=C[C@@H]1O`: the Activity in the data set with Mus musculus [1] was 25 - 50%; in data set [3], “Non-Toxic”; in data set [4], “Non-Toxic”; in [5] it was “Non-Toxic”; in data set [6], “Non-Toxic”; in [7] it was “Non-Toxic”. Further, the Activity in the data set filed under Mus musculus [11] is 50%. In addition, the solubility in data set [2] (water, read-out: solubility) was at least 10000 µg/mL. Also, the result in the data set listed under Mus musculus [8], in the data set filed under Mus musculus [9] and in the data set filed under Mus musculus [10] was inactive.

With `CCCCC(=O)N[C@H]1[C@H]([C@H](O)[C@H](O)Cc2ccc(-c3ccccc3)cc2)OC(C(=O)O)=C[C@@H]1O`, the outcome in the data set on Mus musculus [1] was Active.

In the case of `CCCCC(=O)NC[C@@H](O)[C@@H](O)[C@@H]1OC(C(=O)OC)=C[C@H](O)[C@H]1NC(C)=O`, the results for the inhibition in vivo at 30 mg/kg in the data set with Mus musculus [12] and with Mus musculus [15] were 90% and 70 to 80%, respectively. Further, the Activity is given as 25% in the data set on Mus musculus [13]; 25 - 50% in the data set with Mus musculus [14]; “Non-Toxic” in data set [16]; “Non-Toxic” in [17]; “Non-Toxic” in data set [18]; “Non-Toxic” in data set [19]. Also, the Activity result in data set [20], in data set [21], in data set [22], in data set [23], in [24] and in data set [25] was “Non-Toxic” each time. For the same molecule, the Activity in the data set filed under Mus musculus [11] turned out to be 50%. In addition, in data set [2] (water, read-out: solubility), the solubility is at least 1000 µg/mL. For the same molecule, the outcome in the data set filed under Mus musculus [8], in the data set listed under Mus musculus [9] and in the data set listed under Mus musculus [10] was inactive.

`CC(=O)N[C@H]1[C@H]([C@H](O)[C@H](O)Cn2cc(-c3ccc(-c4ccccc4)cc3)nn2)OC(C(=O)O)=C[C@@H]1O`: the result in the data set on Mus musculus [1] was Active.

For `COC(=O)C1=C[C@H](O)[C@@H](NC(C)=O)[C@H]([C@H](O)[C@H](O)Cn2cc(-c3ccc(-c4ccccc4)cc3)nn2)O1`, the Activity in the data set on Mus musculus [1] is 25 - 50%; in data set [3] it was “Non-Toxic”; in data set [4], “Non-Toxic”; in [5] it was “Non-Toxic”; in [6], “Non-Toxic”; in [7] it was “Non-Toxic”. The inhibition in vivo at 30 mg/kg in the data set on Mus musculus [26] and in the data set with Mus musculus [27] was 70 to 80% in each case. In [2] (buffer), the solubility came out at 100 µg/mL (≈ 197 µM).

For `CCCCC(=O)NC[C@@H](O)[C@@H](O)[C@@H]1OC(C(=O)O)=C[C@H](O)[C@H]1NC(C)=O`, the outcome in the data set with Mus musculus [13] and in the data set with Mus musculus [14] was Active.

As for `CC(=O)N[C@H]1[C@H]([C@H](O)[C@H](O)Cn2cc(-c3ccc(-c4ccccc4)cc3)nn2)OC(C(=O)O)=C[C@@H]1NC(=N)N`, the result with Mus musculus [1] was Active.

For `COC(=O)C1=C[C@H](NC(=N)N)[C@@H](NC(C)=O)[C@H]([C@H](O)[C@H](O)Cn2cc(-c3ccc(-c4ccccc4)cc3)nn2)O1`, the Activity with Mus musculus [1] is 25 - 50%; in [3] it was “Non-Toxic”; in data set [4] it was “Non-Toxic”; in data set [5] it was “Non-Toxic”; in data set [6] it was “Non-Toxic”; in data set [7], “Non-Toxic”. For the same molecule, the Activity in the data set listed under Mus musculus [11] came out at 50%. The outcome in the data set listed under Mus musculus [8], in the data set listed under Mus musculus [9] and in the data set listed under Mus musculus [10] was inactive.

Take `CC(=O)N[C@H]1[C@H]([C@H](O)[C@H](O)CO)OC(C(=O)O)=C[C@@H]1O`: in data set [28], the inhibition entry was “Active”.
